Results from ChEMBL document CHEMBL4196242, “Irpeksins A-E, 1,10- seco-Eburicane-Type Triterpenoids from the Medicinal Fungus Irpex lacteus and Their Anti-NO Activity” (J Nat Prod, 2018).

What follows are compounds tested on RAW264.7 (assay: Inhibition of LPS-induced nitric oxide production in mouse RAW264.7 cells after 18 hrs by Griess assay). Conditions: RAW264.7, 18 h.
Assay type: functional, cell-based

SMILES	IC50 [µM]
CNC(=N)NCCC[C@H](N)C(=O)O [TILARGININE]	32.9
CC1=C(C)[C@@]2(C[C@@H](C)[C@H]3[C@H](C[C@@]4(C)c5ccc(C(C)(C)/C=C/CO)c(C)c5C(=O)C[C@]34C)O2)OC1=O	2.2
CC1=C(C)[C@@]2(C[C@@H](C)[C@H]3[C@H](C[C@@]4(C)c5ccc(C(C)(C)/C=C/C(=O)O)c(C)c5C(=O)C[C@]34C)O2)OC1=O	17.9
CC1=C(C)[C@@]2(C[C@@H](C)[C@H]3[C@H](C[C@@]4(C)c5ccc(C(C)(C)/C=C/C(=O)O)c(C)c5[C@H](O)C[C@]34C)O2)OC1=O	4.5
CC1=C(C)[C@@]2(C[C@@H](C)[C@H]3[C@H](C[C@@]4(C)c5ccc(C(C)(C)/C=C/CO)c(C)c5O[C@H](O)C[C@]34C)O2)OC1=O	19.6
CC1=C(C)[C@@]2(C[C@@H](C)[C@H]3[C@H](C[C@@]4(C)c5ccc(C(C)(C)CCCO)c(C)c5C(=O)C[C@]34C)O2)OC1=O	12.8
